What is called EC50 is the concentration needed to bring the measured effect to its halfway point.

The structures appear in SMILES notation. Counter-ions that a name gives are not always drawn.

The target of the experiment is T1, human receptor found in pancreatic islet cells (Homo sapiens, UniProt Q7Z601).
T1 sequence (Q7Z601 1-462): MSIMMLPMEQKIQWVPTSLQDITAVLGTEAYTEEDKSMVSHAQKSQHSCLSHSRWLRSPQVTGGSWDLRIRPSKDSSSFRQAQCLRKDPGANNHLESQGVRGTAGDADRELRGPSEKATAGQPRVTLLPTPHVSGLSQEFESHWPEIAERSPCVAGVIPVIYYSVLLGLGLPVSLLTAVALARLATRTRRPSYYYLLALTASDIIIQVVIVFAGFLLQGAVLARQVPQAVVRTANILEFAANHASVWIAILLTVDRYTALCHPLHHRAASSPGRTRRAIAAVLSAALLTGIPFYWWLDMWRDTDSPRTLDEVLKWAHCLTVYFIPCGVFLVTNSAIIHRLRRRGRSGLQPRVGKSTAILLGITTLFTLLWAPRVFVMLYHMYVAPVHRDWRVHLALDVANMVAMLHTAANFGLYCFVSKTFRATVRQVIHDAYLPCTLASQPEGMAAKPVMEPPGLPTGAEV
Briefly: Activation of intracellular IP3 signaling in transfected cells (Activation Assay). Conditions: calculated from IP3 concentration measurements in cells transfected with the human receptor. The class given is cell-based. The protocol:
Table 12 provides exemplary compounds that were prepared and assessed, following protocols known to those of skilled in the art, for activation of intracellular inositol trisphosphate (IP3) signaling pathways that lead to elevation of intracellular calcium concentration. EC50 values provided in Table 12 were calculated from IP3 concentration measurements in cells transfected with a human receptor found in pancreatic islet cells, inter alia.
For the molecule `COc1ncc(-c2ccncc2)cc1NC(=O)[C@H](Cc1ccccc1)NCc1ccon1` [Example 35.4, (S)-2-(Isoxazol-3-ylmethylamino)-N-(2-methoxy-5-(pyridin-4-yl)pyridin-3-yl)-3-phenylpropanamide], the EC50 is 100 to 1000 nM.

With `COc1ncc(-c2ccncc2)cc1NC(=O)[C@H](Cc1ccccc1)NC1(c2ncccn2)CC1` [Example 35.5, (S)—N-(2-Methoxy-5-(pyridin-4-yl)pyridin-3-yl)-3-phenyl-2-(1-(pyrimidin-2-yl)cyclopropylamino)propanamide], the EC50 was 50 to 100 nM.

Regarding `COc1ncc(-c2ccnc(C)c2)cc1NC(=O)[C@@H](N)Cc1ccccc1` [Example 35.6, (2S)-2-Amino-N-(2-methoxy-5-(2-methylpyridin-4-yl)pyridin-3-yl)-3-phenylpropanamide], the EC50 was 1000 to 10000 nM.

Take `Nc1cc(-c2cccc(NC(=O)[C@H](Cc3ccccc3)NCc3cscn3)c2)ccn1` [Example 36, (2S)—N-(3-(2-Aminopyridin-4-yl)phenyl)-3-phenyl-2-(thiazol-4-ylmethylamino)propanamide]: the EC50 was 100 to 1000 nM.

For `COc1ccc(NC(=O)[C@H](Cc2ccccc2)NCc2cscn2)cc1-c1ccncc1` [Example 37, (S)—N-(4-Methoxy-3-(pyridin-4-yl)phenyl)-3-phenyl-2-(thiazol-4-ylmethylamino)propanamide], the EC50 was 50 to 100 nM.

On to `COc1ccc(NC(=O)[C@H](Cc2ccccc2)NCc2cscn2)cc1-c1ccncc1` [Example 38, (S)—N-(4-Methoxy-3-(pyridin-4-yl)phenyl)-3-phenyl-2-(thiazol-4-ylmethylamino)propanamide], for which the EC50 is 100 to 1000 nM.

As for `Cc1cc(-c2cccc(NC(=O)[C@H](Cc3ccccc3)NCc3cscn3)c2)ccn1` [Example 39, (2S)—N-(3-(2-methylpyridin-4-yl)phenyl)-3-phenyl-2-(thiazol-4-ylmethylamino)propanamide], the EC50 was 50 to 100 nM.

For the molecule `Nc1cccc(-c2cccc(NC(=O)[C@H](Cc3ccccc3)NCc3cscn3)c2)c1` [Example 40, (S)—N-(3′-aminobiphenyl-3-yl)-3-phenyl-2-(thiazol-4-ylmethylamino)propanamide], the EC50 is 1000 to 10000 nM.

As to `COc1ncc(-c2ccnc(C)c2)cc1NC(=O)[C@H](Cc1ccccc1)NC1(c2ccccn2)CC1` [Example 41.1, (2S)—N-(2-Methoxy-5-(2-methylpyridin-4-yl)pyridin-3-yl)-3-phenyl-2-(1-(pyridin-2-yl)cyclopropylamino)propanamide], the EC50 was 100 to 1000 nM.

On to `COc1ncc(-c2ccnc(C)c2)cc1NC(=O)[C@H](Cc1ccccc1)N[C@@H](C)c1ccccn1` [Example 41.2, (S)—N-(2-Methoxy-5-(2-methylpyridin-4-yl)pyridin-3-yl)-3-phenyl-2-((S)-1-(pyridin-2-yl)ethylamino)propanamide], for which the EC50 is 100 to 1000 nM.

For the molecule `COc1ncc(-c2ccnc(C)c2)cc1NC(=O)[C@H](Cc1ccccc1)NCc1ccccn1` [Example 41.3, (2S)—N-(2-Methoxy-5-(2-methylpyridin-4-yl)pyridin-3-yl)-3-phenyl-2-(pyridin-2-ylmethylamino)propanamide], the EC50 was 100 to 1000 nM.

Consider `COc1ncc(-c2ccnc(C)c2)cc1NC(=O)[C@H](Cc1ccccc1)NCc1cn(C)cn1` [Example 41.4, (2S)—N-(2-Methoxy-5-(2-methylpyridin-4-yl)pyridin-3-yl)-2-((1-methyl-1H-imidazol-4-yl)methylamino)-3-phenylpropanamide], for which the EC50 is 100 to 1000 nM.

Consider `COc1ncc(-c2ccnc(C)c2)cc1NC(=O)[C@H](Cc1ccccc1)NCc1cscn1` [Example 41.5, (2S)—N-(2-Methoxy-5-(2-methylpyridin-4-yl)pyridin-3-yl)-3-phenyl-2-(thiazol-4-ylmethylamino)propanamide TFA salt], for which the EC50 is 100 to 1000 nM.

With `COc1cc(NC(=O)[C@H](Cc2ccccc2)NCc2cscn2)cc(-c2ccnc(C)c2)n1` [Example 41.6, (2S)—N-(2-Methoxy-6-(2-methylpyridin-4-yl)pyridin-4-yl)-3-phenyl-2-(thiazol-4-ylmethylamino)propanamide], the EC50 is 100 to 1000 nM.

For `CCCn1nc(-c2ccnc(NC)c2)cc1NC(=O)[C@H](Cc1ccc(F)cc1)NCc1cscn1` [Example 42, (2S)-3-(4-fluorophenyl)-N-(3-(2-(methylamino)pyridin-4-yl)-1-propyl-1H-pyrazol-5-yl)-2-(thiazol-4-ylmethylamino)propanamide], the EC50 was below 50 nM.

Regarding `CNc1cc(-c2cc(NC(=O)[C@@H](N)Cc3ccc(F)cc3)n(C(C)C)n2)ccn1` [Example 43.1, (2S)-2-Amino-3-(4-fluorophenyl)-N-(1-isopropyl-3-(2-(methylamino)pyridin-4-yl)-1H-pyrazol-5-yl)propanamide], the EC50 was 100 to 1000 nM.

Regarding `CNc1cc(-c2cc(NC(=O)[C@H](Cc3ccc(F)cc3)NCc3cscn3)n(C(C)C)n2)ccn1` [Example 43.2], the EC50 was 50 to 100 nM.

Consider `O=C(Nc1cccc(-c2ccc(F)cc2)c1)[C@H](Cc1ccccc1)NCc1cscn1` [Example 44], for which the EC50 was 100 to 1000 nM.

Regarding `N[C@@H](Cc1ccccc1)C(=O)Nc1cc(C(=O)O)cc(-c2ccncc2)c1` [Example 45.1, (S)-3-(2-Amino-3-phenylpropanamido)-5-(pyridin-4-yl)benzoic acid], the EC50 was 1000 to 10000 nM.

Regarding `O=C(O)c1cc(NC(=O)[C@H](Cc2ccccc2)NCc2nccs2)cc(-c2ccncc2)c1` [Example 45.3, (S)-3-(3-Phenyl-2-(thiazol-2-ylmethylamino)propanamido)-5-(pyridin-4-yl)benzoic acid], the EC50 was 100 to 1000 nM.

Turning to `O=C(O)c1cc(NC(=O)[C@H](Cc2ccccc2)NCc2cn[nH]c2)cc(-c2ccncc2)c1` [Example 45.4, (S)-3-(2-((1H-Pyrazol-4-yl)methylamino)-3-phenylpropanamido)-5-(pyridin-4-yl)benzoic acid], the EC50 is 1000 to 10000 nM.

For `O=C(O)c1cc(NC(=O)[C@H](Cc2ccccc2)NCc2cc[nH]n2)cc(-c2ccncc2)c1` [Example 45.5, (S)-3-(2-((1H-Pyrazol-3-yl)methylamino)-3-phenylpropanamido)-5-(pyridin-4-yl)benzoic acid], the EC50 was 100 to 1000 nM.

As to `O=C(O)c1cc(NC(=O)[C@H](Cc2ccccc2)NCc2ccccn2)cc(-c2ccncc2)c1` [Example 45.6, (S)-3-(3-Phenyl-2-(pyridin-2-ylmethylamino)propanamido)-5-(pyridin-4-yl)benzoic acid], the 50% effective concentration (EC50) is 50 to 100 nM.

Consider `Cc1cc(-c2cc(Cl)cc(NC(=O)[C@H](Cc3ccccc3)NCc3ccccn3)c2)ccn1` [Example 46, (2S)—N-(3-chloro-5-(2-methylpyridin-4-yl)phenyl)-3-phenyl-2-(pyridin-2-ylmethylamino)propanamide], for which the EC50 was 50 to 100 nM.

On to `NC(=O)c1cc(NC(=O)[C@H](Cc2ccccc2)NCc2cscn2)cc(-c2ccncc2)c1` [Example 47, (S)-3-(3-phenyl-2-(thiazol-4-ylmethylamino)propanamido)-5-(pyridin-4-yl)benzamide], for which the EC50 is 50 to 100 nM.

Regarding `O=C(Nc1cccc(-c2ccccc2)c1)[C@H](Cc1ccccc1)NCc1cscn1` [Example 48], the EC50 is 100 to 1000 nM.

Take `Cc1cc(-c2cc(NC(=O)[C@@H](N)Cc3ccc(Cl)cc3Cl)cc(C(=O)O)c2)ccn1` [Example 49.1, 3-((S)-2-Amino-3-(2,4-dichlorophenyl)propanamido)-5-(2-methylpyridin-4-yl)benzoic acid]: the EC50 was 1000 to 10000 nM.

As to `Cc1cc(-c2cc(NC(=O)[C@H](Cc3ccccc3)NCc3cscn3)cc(C(=O)O)c2)ccn1` [Example 49.2, 3-(2-Methylpyridin-4-yl)-5-((S)-3-phenyl-2-(thiazol-4-ylmethylamino)propanamido)benzoic acid TFA salt], the EC50 was 100 to 1000 nM.

For the molecule `O=C([C@H](Cc1ccccc1)NCc1ccccn1)N1CCc2ccc(-c3ccncc3)cc21` [Example 50, (S)-3-Phenyl-2-(pyridin-2-ylmethylamino)-1-(6-(pyridin-4-yl)indolin-1-yl)propan-1-one TFA Salt], the EC50 is 100 to 1000 nM.

With `Cc1cc(-c2cc(NC(=O)[C@H](Cc3ccccc3)NCc3cscn3)cc(NS(C)(=O)=O)c2)ccn1` [Example 51.1, (2S)—N-(3-(2-Methylpyridin-4-yl)-5-(methylsulfonamido)phenyl)-3-phenyl-2-(thiazol-4-ylmethylamino)propanamide], the EC50 was 50 to 100 nM.

Take `Cc1cc(-c2cc(NC(=O)[C@H](Cc3ccccc3)NCc3ccccn3)cc(NS(C)(=O)=O)c2)ccn1` [Example 51.2, (2S)—N-(3-(2-Methylpyridin-4-yl)-5-(methylsulfonamido)phenyl)-3-phenyl-2-(pyridin-2-ylmethylamino)propanamide]: the EC50 was 50 to 100 nM.

For the molecule `O=C(Nc1cc(-c2ccncc2)cc(C(F)(F)C(=O)O)c1)[C@H](Cc1ccccc1)NCc1cscn1` [Example 52, (S)-2,2-difluoro-2-(3-(3-phenyl-2-(thiazol-4-ylmethylamino)propanamido)-5-(pyridin-4-yl)phenyl)acetic acid], the EC50 was 100 to 1000 nM.

`N#Cc1cc(-c2ccncc2)cc2c1CCN2C(=O)[C@H](Cc1ccccc1)NCc1cscn1` [Example 53, (S)-1-(3-Phenyl-2-(thiazol-4-ylmethylamino)propanoyl)-6-(pyridin-4-yl)indoline-4-carbonitrile]: the EC50 was 100 to 1000 nM.

The values above are taken from patent US8785468B2, “Phenylalanine amide derivatives useful for treating insulin-related diseases and conditions” (Amgen Inc., priority 2009, dated 2014).
